{"source": "patent US7767817B2", "about": "“Water soluble boronic acid fluorescent reporter compounds and methods of use thereof” (priority 2003, dated 2010)", "key": {"[1]": {"experiment": "Fluorescence quantum yield", "assay_type": "physicochemical", "method": "The effect of various carbohydrates on the fluorescent properties of compound 1 was determined in phosphate buffer at pH 7.4. The emission spectral change of 1 with fructose at different concentrations in 0.1 M aqueous phosphate buffer (pH 7.4) is shown in FIG. 4. A 41-fold emission intensity increase is observed in presence of 50 mM fructose. To the best of our knowledge, such a large emission intensity increase has never been reported for boronic acid-based saccharide sensors involving the ICT mechanism. The quantum yields of 1 in the absence (φF=0.010) and in the presence of 50 mM fructose (φF=0.42) in 0.1 M phosphate buffer (pH 7.4) were obtained using 8-quinoline boronic acid (φF=0.58 in 12 M H2SO4) as a reference compound.\nFor example, addition of fructose (50 mM) to the solution of 7 induced a 36-fold fluorescence intensity increase at 433 nm and a 0.55-fold fluorescence intensity decrease at 513 nm (FIG. 14). […] To the best of our knowledge, such large emission intensity changes at two wavelengths have never been reported for boronic acid-based saccharide sensors. The quantum yields (φF) of 7 were determined as 0.07 at 513 nm in 0.1 M phosphate buffer (pH 7.4) in the absence of a sugar and 0.23 at 433 nm in the presence of 50 mM of fructose, using 8-quinoline boronic acid (φF=0.58 in 12 M H2SO4) as a reference compound."}, "[2]": {"experiment": "Fluorescence binding study with glucose", "method": "(§1) For a typical sugar-BTBA fluorescent measurement, a 1.0×10^−5 M stock solution of BTBA in 0.10 M phosphate buffer at pH 7.4 was made as solution A. […] Solution B was titrated into solution A in order to make mixtures with a constant concentration of BTBA and a range of concentrations of the sugar. Each mixture was allowed to stand for at least 10 min, then 3.0 mL of the mixture was transferred into a cuvette for fluorescence measurement.\n(§2) The association constants (Ka) were determined according to the method III in Valeur's publication (J. Phys. Chem. 1988, 92, 6233)."}, "[3]": {"experiment": "Fluorescence binding study with galactose", "method": "as §1, §2"}, "[4]": {"experiment": "Fluorescence binding study with fructose", "method": "as §1, §2"}, "[5]": {"experiment": "Fluorescence intensity pH profile (apparent pKa)", "assay_type": "physicochemical", "source_text": "Since the fluorescence intensity increase upon binding with a sugar seems to be a general phenomenon, the fluorescence change mechanism of compound 5 at pH 7.4 was investigated. For this purpose, the fluorescence pH profiles of both compound 5 alone and compound 5 in the presence of fructose (0.5 M) were studied. The fluorescence intensity of 5 at 334 nm in the absence of sugars decreased upon changing the pH from 3 to 12 (FIG. 3). An apparent pKa of 7.0 was observed, which is assigned to the boronic acid moiety. […] It is well-known that the binding of a diol to boronic acid often lowers the pKa of the boron species) (Springsteen, G.; Wang, B. Tetrahedron 2002, 58, 5291-5300). Therefore, the pKa, which drops from 7.0 to 4.0, can also be reasonably assigned to boron. […] It seems that the fluorescence intensity change of compound 5 is also due to diol's perturbation as that of 8-quinolineboronic acid.\nTo examine the relationship between the fluorescence intensity changes and the boron ionization states, the pH profile of the fluorescence intensity in the absence and presence of fructose and glucose at a fixed concentration (50 mM) was also studied (FIG. 6). […] It is worth mentioning that the pKa of the protonated dimethyl amino group of 1 is […] the emission wavelength of 1 with the protonated dimethyl amino group at low pH is about 238 nm. Therefore, the fluorescence intensity of 1 at 445 nm was not affected by the protonated dimethyl amino group. The fluorescence intensity changes correspond to the boronic acid pKa (9.4) and therefore hybridization changes, which was responsible for the fluorescence intensity changes observed.\nSince the fluorescence intensity increase upon binding with a sugar seems to be a general phenomenon, next the conditions under which optimal fluorescence intensity changes are observed upon addition of a sugar was investigated. For this purpose, the fluorescence pH profiles of both compound 6 alone and in the presence of fructose (0.5 M) were studied. The fluorescence intensity of 6 in the absence of sugars increased by 17-fold upon changing the pH from 3 to 12 (FIG. 10). […] Furthermore, one would expect the pKa values of the other two ionizable groups, the carboxylic acid and the quinolinium groups, to be less than 7. Therefore, assigning the pKa at 7.9 to the boronic acid moiety is the most reasonable option. […] It is well-known that the binding of a diol to boronic acid often lowers the pKa of the boron species. […] Upon addition of fructose, the pKa of the boron drops to about 5.2, which ensures that most of the boron species are in the anionic tetrahedral state at physiological pH.\nSince the fluorescence intensity increase upon binding with a sugar seems to be a general phenomenon, the use of 5-QBA functions as a fluorescent probe for diols was investigated. The fluorescence pH profiles of both 5-QBA alone and 5-QBA in the presence of D-fructose (0.5 M) were investigated. […] In order to assign each pKa, the ^11B NMR spectra of 5-QBA and its ester in a mixed deuterated methanol-water (1:1) solvent at different pH were obtained. Methanol was used so that the concentration of 5-QBA can be increased to 57 mM so as to allow for a meaningful NMR determination within a reasonable period of time.\nTo understand the structural features associated with the fluorescence intensity changes, we studied the pH profiles of the fluorescence intensity in the absence (FIG. 18) and presence of fructose and glucose at a fixed concentration (50 mM). […] The fluorescence intensity at 513 nm increased very quickly when pH increased from 1.78 to 7.04 (thin lines in FIG. 18), and then decreased in the pH range of 7.04-10.54 (thick lines in FIG. 18)."}, "[6]": {"experiment": "Stability noted at isolation", "assay_type": "physicochemical", "conditions": "after TFA deprotection, no further purification", "method": "(7). To a solution of 6 (0.2501 g, 0.79 mmol) in DCM (20 mL) was added TFA (5 mL). The solution was stirred for 1 h, and then concentrated in vacuum to give a yellow oil."}, "[7]": {"experiment": "Fluorescence binding study with sorbitol", "method": "as §1, §2"}, "[8]": {"experiment": "Fluorescence binding study with tagatose", "method": "as §1, §2"}, "[9]": {"conditions": "0.1 M phosphate buffer pH 7.4, 1:1 complex assumed"}, "[10]": {"conditions": "glucose 1.0 M, pH 7.4, λex 300 nm"}, "[11]": {"conditions": "galactose 0.50 M, pH 7.4, λex 300 nm"}, "[12]": {"conditions": "fructose 0.05 M, pH 7.4, λex 300 nm"}, "[13]": {"conditions": "tagatose 0.05 M, pH 7.4, λex 300 nm"}}, "note": "Read-outs that look alike come from different tables or passages of the source."}
{"smiles": "CN(C)c1cccc2c(B(O)O)cccc12", "note": "[Compound 7, 5-(Dimethylamino)-naphthalene-1-boronic acid]", "values": [{"measurement": "quantum yield φF at 513 nm", "setting": "[1]; absence of a sugar, 0.1 M phosphate buffer pH 7.4", "value": 0.07}, {"measurement": "quantum yield φF at 433 nm", "setting": "[1]; presence of 50 mM fructose", "value": 0.23}, {"measurement": "Association constant (Ka) with glucose", "setting": "[2]; [9]", "value": "3.6 ± 0.1", "unit": "M⁻¹"}, {"measurement": "fluorescence intensity change ΔI/I0 at 433 nm", "setting": "[2]; [10]", "value": "23 (1.0)"}, {"measurement": "fluorescence intensity change ΔI/I0 at 513 nm", "setting": "[2]; [10]", "value": "−0.54 (1.0)"}, {"measurement": "maximum fluorescence intensity increase at 433 nm", "setting": "[2]; glucose 1 M, physiological pH", "value": 23, "unit": "fold"}, {"measurement": "Association constant (Ka) with galactose", "setting": "[3]; [9]", "value": "23.0 ± 0.2", "unit": "M⁻¹"}, {"measurement": "fluorescence intensity change ΔI/I0 at 433 nm", "setting": "[3]; [11]", "value": "36 (0.50)"}, {"measurement": "fluorescence intensity change ΔI/I0 at 513 nm", "setting": "[3]; [11]", "value": "−0.56 (0.50)"}, {"measurement": "fluorescence intensity increase at 433 nm", "setting": "[3]; galactose, physiological pH", "value": "about 36 fold"}, {"measurement": "change of the ratio I433/I513", "setting": "[4]; 50 mM fructose versus no sugar", "value": 84, "unit": "fold"}, {"measurement": "Association constant (Ka) with fructose", "setting": "[4]; [9]", "value": "311 ± 4", "unit": "M⁻¹"}, {"measurement": "emission intensity ratio at 433 and 513 nm (I433/I513)", "setting": "[4]; before addition of a sugar, pH 7.4", "value": 0.11}, {"measurement": "fluorescence intensity change ΔI/I0 at 433 nm", "setting": "[4]; [12]", "value": "36 (0.05)"}, {"measurement": "fluorescence intensity change ΔI/I0 at 513 nm", "setting": "[4]; [12]", "value": "−0.61 (0.05)"}, {"measurement": "fluorescence intensity decrease at 513 nm", "setting": "[4]; fructose 50 mM, phosphate buffer pH 7.4", "value": 0.55, "unit": "fold"}, {"measurement": "emission intensity ratio at 433 and 513 nm (I433/I513)", "setting": "[4]; upon addition of 0.1 mM fructose", "value": 0.23}, {"measurement": "pKa", "setting": "[5]; 0.1 M aqueous phosphate buffer with 50 mM glucose, presence of glucose, intensity at 335 nm, read-out: first apparent pKa (aniline group)", "value": 5.1}, {"measurement": "pKa", "setting": "[5]; 0.1 M aqueous phosphate buffer, compound alone, intensity at 335 nm, read-out: first apparent pKa (aniline group)", "value": 5.1}, {"measurement": "pKa", "setting": "[5]; 0.1 M phosphate buffer, absence of sugar, 0.1 M phosphate buffer, read-out: apparent pKa assigned to the boronic acid moiety", "value": "~9"}, {"measurement": "stability", "setting": "[6]", "value": "not stable in neutral"}, {"measurement": "melting point", "value": "95 to 96", "unit": "°C"}, {"measurement": "Association constant (Ka) with sorbitol", "setting": "[7]; [9]", "value": "337 ± 5", "unit": "M⁻¹"}, {"measurement": "fluorescence intensity change ΔI/I0 at 513 nm", "setting": "[7]; sorbitol 0.05 M, pH 7.4, λex 300 nm", "value": "−0.48 (0.05)"}, {"measurement": "fluorescence intensity change ΔI/I0 at 433 nm", "setting": "[7]; sorbitol 0.20 M, pH 7.4, λex 300 nm", "value": "42 (0.20)"}, {"measurement": "fluorescence intensity increase at 433 nm", "setting": "[7]; sorbitol 200 mM, physiological pH", "value": 42, "unit": "fold"}, {"measurement": "Association constant (Ka) with tagatose", "setting": "[8]; [9]", "value": "229 ± 3", "unit": "M⁻¹"}, {"measurement": "fluorescence intensity change ΔI/I0 at 433 nm", "setting": "[8]; [13]", "value": "37 (0.05)"}, {"measurement": "fluorescence intensity change ΔI/I0 at 513 nm", "setting": "[8]; [13]", "value": "−0.55 (0.05)"}, {"measurement": "fluorescence intensity increase at 433 nm", "setting": "[8]; tagatose, physiological pH", "value": "about 36 fold"}]}
